The text below walks through data of PMC9396064, “The enzyme pseudooxynicotine amine oxidase from Pseudomonas putida S16 is not an oxidase, but a dehydrogenase” (The Journal of Biological Chemistry, 2022).

The assay has as its target T1, Pnao (pseudooxynicotine amine oxidase) (Pseudomonas putida, UniProt F8G0P1).
T1 construct: signal peptide removed (from Ala45 onward); N-terminal His-SUMO tag cleaved with ULP1; pET28a, E. coli BL21 (DE3); FAD-containing homodimer
Briefly: X-ray crystal structure, […] Å. It is filed as binding. Particulars: crystals pH 9; oxidized FAD at the active site.

T1 sequence (F8G0P1 45-496): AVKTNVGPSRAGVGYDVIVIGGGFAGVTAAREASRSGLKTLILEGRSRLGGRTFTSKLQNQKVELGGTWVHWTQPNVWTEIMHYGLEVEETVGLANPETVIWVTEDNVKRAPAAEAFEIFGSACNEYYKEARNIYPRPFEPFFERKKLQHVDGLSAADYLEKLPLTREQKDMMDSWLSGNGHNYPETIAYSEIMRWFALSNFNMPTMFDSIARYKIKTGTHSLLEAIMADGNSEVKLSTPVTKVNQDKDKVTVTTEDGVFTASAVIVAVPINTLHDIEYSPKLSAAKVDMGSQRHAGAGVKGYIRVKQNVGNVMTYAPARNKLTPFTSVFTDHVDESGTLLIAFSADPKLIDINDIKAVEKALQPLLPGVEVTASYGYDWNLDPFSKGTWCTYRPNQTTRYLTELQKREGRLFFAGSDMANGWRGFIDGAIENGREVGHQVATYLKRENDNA

On to `Cc1cc2nc3c(=O)[nH]c(=O)nc-3n(C[C@H](O)[C@H](O)[C@H](O)COP(=O)(O)OP(=O)(O)OC[C@H]3O[C@@H](n4cnc5c(N)ncnc54)[C@H](O)[C@@H]3O)c2cc1C` [flavin adenine dinucleotide], for which the “X-ray crystal structure, 2.60 Å” value is recorded as “Our structure of Pnao contained oxidized FAD”.
